Measured values from the supplement of paper PMC4862054.

Key:
Test in all cases: normalised viability (% of control), CellTiter-Blue; higher = more viable cells (about 100 = DMSO control)
Conditions in all cases: incubation time: 72 h
[1] = system: BT-474
Description: (§1)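 DSRT, CellTiter-Blue viability, 72 h incubation. Signal is normalised to DMSO and benzethonium chloride controls. Value is the normalised response at dose 3.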

[2] = system: BT-549
Description: as §1

[3] = system: CAL-120
Description: as §1

[4] = system: CAL-148
Description: as §1

[5] = system: CAL-51
Description: as §1

[6] = system: CAL-85-1
Description: as §1

[7] = system: DU-4475
Description: as §1

[8] = system: HCC1143
Description: as §1

[9] = system: HCC1599
Description: as §1

[10] = system: HCC1937
Description: as §1

[11] = system: HDQ-P1
Description: as §1

[12] = system: MDA-MB-231
Description: as §1

[13] = system: MDA-MB-436
Description: as §1

[14] = system: MDA-MB-453
Description: as §1

[15] = system: MDA-MB-468
Description: as §1

[16] = system: SK-BR-3
Description: as §1

[17] = system: BT-474; remark: listed apart in the source
Procedure, shortened: (§2)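 Each value is normalised viability at a single listed concentration of the series. Breast cancer cell lines in 384-well plates were incubated 72 h with compound and read by CellTiter-Blue fluorescence at 560/590 nm, with vehicle set to 100 and a positive kill control to 0 on every plate.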

[18] = system: BT-549; remark: listed apart in the source
Procedure, shortened: as §2

[19] = system: CAL-120; remark: listed apart in the source
Procedure, shortened: as §2

[20] = system: CAL-51; remark: listed apart in the source
Procedure, shortened: as §2

[21] = system: CAL-85-1; remark: listed apart in the source
Procedure, shortened: as §2

[22] = system: DU-4475; remark: listed apart in the source
Procedure, shortened: as §2

[23] = system: HCC1143; remark: listed apart in the source
Procedure, shortened: as §2

[24] = system: HDQ-P1; remark: listed apart in the source
Procedure, shortened: as §2

[25] = system: Hs578T
Procedure, shortened: as §2

[26] = system: MDA-MB-453; remark: listed apart in the source
Procedure, shortened: as §2

[27] = system: MDA-MB-468; remark: listed apart in the source
Procedure, shortened: as §2

[28] = system: MFM-223
Procedure, shortened: as §2

[29] = system: SK-BR-3; remark: listed apart in the source
Procedure, shortened: as §2

Nc1nc(Cl)nc2c1ncn2[C@H]1C[C@H](O)[C@@H](CO)O1 [Cladribine]
Conditions	normalised viability [%]
[1], 10 nM	118
[2], 10 nM	92
[3], 10 nM	97.4
[4], 1 nM	97.4
[5], 1 nM	114
[6], 1 nM	107
[7], 1 nM	108
[8], 10 nM	85.5
[9], 10 nM	105
[10], 10 nM	84.8
[11], 1 nM	120
[12], 10 nM	83
[13], 10 nM	96.9
[14], 1 nM	112
[15], 10 nM	104
[16], 10 nM	95
[17], 1 nM	112
[17], 100 nM	102
[17], 1000 nM	103
[18], 1 nM	82.5
[18], 100 nM	86.4
[18], 1000 nM	45.8
[19], 1 nM	87.2
[19], 100 nM	79.7
[19], 1000 nM	48.1
[20], 0.3 nM	119
[20], 3 nM	116
[20], 10 nM	114
[21], 0.3 nM	102
[21], 3 nM	101
[21], 10 nM	105
[22], 0.3 nM	106
[22], 3 nM	104
[22], 10 nM	102
[23], 1 nM	91.9
[23], 100 nM	87.6
[23], 1000 nM	72.2
[24], 0.3 nM	113
[24], 3 nM	101
[24], 10 nM	109
[25], 1 nM	111
[25], 100 nM	104
[25], 1000 nM	105
[26], 0.3 nM	126
[26], 3 nM	97.4
[26], 10 nM	89.7
[27], 1 nM	99.6
[27], 100 nM	94.4
[27], 1000 nM	82.8
[28], 1 nM	86.2
[28], 100 nM	86.7
[28], 1000 nM	90
[29], 1 nM	92.6
[29], 100 nM	99.7
[29], 1000 nM	42.4

Nc1ccn([C@@H]2O[C@H](CO)[C@@H](O)[C@@H]2O)c(=O)n1 [Cytarabine]
Conditions	normalised viability [%]
[1], 100 nM	101
[2], 100 nM	67.9
[3], 100 nM	82.4
[4], 10 nM	86.6
[5], 10 nM	94.4
[6], 10 nM	110
[7], 10 nM	137
[8], 100 nM	86
[9], 100 nM	110
[10], 100 nM	76.3
[11], 10 nM	94.6
[12], 100 nM	86.3
[13], 100 nM	91.9
[14], 10 nM	109
[15], 100 nM	95.1
[16], 100 nM	81.2
[17], 10 nM	103
[17], 1000 nM	95.7
[17], 10000 nM	93.4
[18], 10 nM	87.2
[18], 1000 nM	65.7
[18], 10000 nM	62.9
[19], 10 nM	95.6
[19], 1000 nM	66.4
[19], 10000 nM	56.9
[20], 3 nM	94.1
[20], 30 nM	91.9
[20], 100 nM	79.8
[21], 3 nM	106
[21], 30 nM	97.4
[21], 100 nM	104
[22], 3 nM	121
[22], 30 nM	87.8
[22], 100 nM	93.9
[23], 10 nM	80.5
[23], 1000 nM	71.4
[23], 10000 nM	63
[24], 3 nM	80.6
[24], 30 nM	94.8
[24], 100 nM	42.5
[25], 10 nM	90.4
[25], 1000 nM	67.8
[25], 10000 nM	62.3
[26], 3 nM	101
[26], 30 nM	111
[26], 100 nM	94.9
[27], 10 nM	101
[27], 1000 nM	68.4
[27], 10000 nM	57.2
[28], 10 nM	107
[28], 1000 nM	95.6
[28], 10000 nM	97.3
[29], 10 nM	97.3
[29], 1000 nM	64.7
[29], 10000 nM	47.2
